# Laboratory results taken from patent US9446039B2, “Aminoheteroaryl compounds as MTH1 inhibitors” (CEMM—FORSCHUNGSZENTRUM FÜR MOLEKULARE MEDIZIN GMBH, priority 2012, dated 2016).
# Key:
# Type in all cases: binding
# [1] = target: T1, SW480 colon carcinoma cells lysate proteins (Homo sapiens, UniProt Q9H910); conditions: PreyGene HN1L
# T1 sequence (Q9H910 1-190): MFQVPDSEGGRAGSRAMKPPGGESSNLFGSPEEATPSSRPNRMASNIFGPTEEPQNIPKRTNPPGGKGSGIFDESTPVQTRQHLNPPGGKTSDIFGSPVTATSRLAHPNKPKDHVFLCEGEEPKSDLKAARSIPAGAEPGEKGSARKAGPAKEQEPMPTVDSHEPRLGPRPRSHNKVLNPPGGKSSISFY
# [2] = target: SW480 colon carcinoma cells lysate proteins (Homo sapiens, UniProt Q00610); conditions: PreyGene CLTC; SW480 cells
# [3] = target: SW480 colon carcinoma cells lysate proteins (Homo sapiens, UniProt Q16658); conditions: PreyGene FSCN1
# [4] = target: SW480 colon carcinoma cells lysate proteins (Homo sapiens, UniProt Q01518); conditions: PreyGene CAP1
# [5] = target: T2, SW480 colon carcinoma cells lysate proteins (Homo sapiens, UniProt P30101); conditions: PreyGene PDIA3
# T2 sequence (P30101 25-505): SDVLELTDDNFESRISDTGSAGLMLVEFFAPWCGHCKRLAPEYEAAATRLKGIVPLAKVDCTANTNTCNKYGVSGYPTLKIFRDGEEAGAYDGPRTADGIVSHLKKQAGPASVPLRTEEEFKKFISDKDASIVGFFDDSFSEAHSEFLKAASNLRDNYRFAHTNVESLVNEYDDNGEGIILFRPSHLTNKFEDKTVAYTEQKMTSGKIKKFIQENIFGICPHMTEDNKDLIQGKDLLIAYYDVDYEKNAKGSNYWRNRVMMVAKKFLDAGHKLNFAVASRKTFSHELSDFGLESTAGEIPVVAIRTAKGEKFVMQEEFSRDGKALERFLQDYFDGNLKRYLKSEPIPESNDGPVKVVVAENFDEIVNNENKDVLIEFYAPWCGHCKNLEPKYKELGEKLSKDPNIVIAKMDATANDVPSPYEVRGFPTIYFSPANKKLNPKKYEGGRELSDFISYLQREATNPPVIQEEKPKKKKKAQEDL
# [6] = target: T3, SW480 colon carcinoma cells lysate proteins (Homo sapiens, UniProt O60664); conditions: PreyGene PLIN3
# T3 sequence (O60664 1-434): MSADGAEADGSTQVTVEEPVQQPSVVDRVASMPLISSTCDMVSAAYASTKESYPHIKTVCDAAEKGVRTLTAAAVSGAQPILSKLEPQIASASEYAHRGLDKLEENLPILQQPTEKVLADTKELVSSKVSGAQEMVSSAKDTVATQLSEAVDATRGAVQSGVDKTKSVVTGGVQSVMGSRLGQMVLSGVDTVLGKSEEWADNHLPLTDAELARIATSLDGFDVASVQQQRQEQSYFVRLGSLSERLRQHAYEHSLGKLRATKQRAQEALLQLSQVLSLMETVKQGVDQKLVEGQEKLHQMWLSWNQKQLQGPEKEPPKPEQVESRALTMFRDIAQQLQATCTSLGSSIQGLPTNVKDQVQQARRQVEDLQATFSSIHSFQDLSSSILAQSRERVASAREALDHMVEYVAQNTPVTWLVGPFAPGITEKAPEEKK
# [7] = target: T4, SW480 colon carcinoma cells lysate proteins (Homo sapiens, UniProt Q8NFT6); conditions: PreyGene DBF4B
# T4 sequence (Q8NFT6 1-615): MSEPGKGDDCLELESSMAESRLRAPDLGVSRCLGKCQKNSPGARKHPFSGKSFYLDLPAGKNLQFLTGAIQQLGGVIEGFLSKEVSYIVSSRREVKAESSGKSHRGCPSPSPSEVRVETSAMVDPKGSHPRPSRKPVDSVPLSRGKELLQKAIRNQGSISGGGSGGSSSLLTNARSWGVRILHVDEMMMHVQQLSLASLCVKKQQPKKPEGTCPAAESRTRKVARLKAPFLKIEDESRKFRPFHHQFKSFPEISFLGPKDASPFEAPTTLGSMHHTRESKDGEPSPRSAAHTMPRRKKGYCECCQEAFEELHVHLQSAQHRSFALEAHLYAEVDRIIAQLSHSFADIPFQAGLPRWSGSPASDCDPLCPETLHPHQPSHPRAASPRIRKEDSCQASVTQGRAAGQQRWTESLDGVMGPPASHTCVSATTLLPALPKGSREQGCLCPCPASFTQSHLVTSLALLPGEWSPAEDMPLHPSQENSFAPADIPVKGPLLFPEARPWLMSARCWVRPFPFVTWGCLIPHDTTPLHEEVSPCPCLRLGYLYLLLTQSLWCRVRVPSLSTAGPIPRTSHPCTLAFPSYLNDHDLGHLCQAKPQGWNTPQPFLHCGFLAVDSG
# Chain of SW480 colon carcinoma cells lysate proteins (Homo sapiens, UniProt Q01518) (Q01518 whole entry): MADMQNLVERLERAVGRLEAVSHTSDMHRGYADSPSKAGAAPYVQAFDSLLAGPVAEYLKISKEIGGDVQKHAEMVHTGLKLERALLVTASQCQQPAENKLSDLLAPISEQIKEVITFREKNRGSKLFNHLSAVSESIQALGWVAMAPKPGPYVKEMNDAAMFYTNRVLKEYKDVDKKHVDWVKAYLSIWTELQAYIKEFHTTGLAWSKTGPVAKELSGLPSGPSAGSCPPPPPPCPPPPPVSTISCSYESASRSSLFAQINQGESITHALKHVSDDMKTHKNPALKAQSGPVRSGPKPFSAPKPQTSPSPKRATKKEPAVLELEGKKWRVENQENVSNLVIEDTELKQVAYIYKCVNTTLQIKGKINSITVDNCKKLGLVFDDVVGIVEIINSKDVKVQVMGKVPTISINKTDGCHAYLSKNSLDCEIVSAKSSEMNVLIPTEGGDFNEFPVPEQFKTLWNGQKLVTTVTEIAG
# Chain of SW480 colon carcinoma cells lysate proteins (Homo sapiens, UniProt Q00610) (Q00610 whole entry): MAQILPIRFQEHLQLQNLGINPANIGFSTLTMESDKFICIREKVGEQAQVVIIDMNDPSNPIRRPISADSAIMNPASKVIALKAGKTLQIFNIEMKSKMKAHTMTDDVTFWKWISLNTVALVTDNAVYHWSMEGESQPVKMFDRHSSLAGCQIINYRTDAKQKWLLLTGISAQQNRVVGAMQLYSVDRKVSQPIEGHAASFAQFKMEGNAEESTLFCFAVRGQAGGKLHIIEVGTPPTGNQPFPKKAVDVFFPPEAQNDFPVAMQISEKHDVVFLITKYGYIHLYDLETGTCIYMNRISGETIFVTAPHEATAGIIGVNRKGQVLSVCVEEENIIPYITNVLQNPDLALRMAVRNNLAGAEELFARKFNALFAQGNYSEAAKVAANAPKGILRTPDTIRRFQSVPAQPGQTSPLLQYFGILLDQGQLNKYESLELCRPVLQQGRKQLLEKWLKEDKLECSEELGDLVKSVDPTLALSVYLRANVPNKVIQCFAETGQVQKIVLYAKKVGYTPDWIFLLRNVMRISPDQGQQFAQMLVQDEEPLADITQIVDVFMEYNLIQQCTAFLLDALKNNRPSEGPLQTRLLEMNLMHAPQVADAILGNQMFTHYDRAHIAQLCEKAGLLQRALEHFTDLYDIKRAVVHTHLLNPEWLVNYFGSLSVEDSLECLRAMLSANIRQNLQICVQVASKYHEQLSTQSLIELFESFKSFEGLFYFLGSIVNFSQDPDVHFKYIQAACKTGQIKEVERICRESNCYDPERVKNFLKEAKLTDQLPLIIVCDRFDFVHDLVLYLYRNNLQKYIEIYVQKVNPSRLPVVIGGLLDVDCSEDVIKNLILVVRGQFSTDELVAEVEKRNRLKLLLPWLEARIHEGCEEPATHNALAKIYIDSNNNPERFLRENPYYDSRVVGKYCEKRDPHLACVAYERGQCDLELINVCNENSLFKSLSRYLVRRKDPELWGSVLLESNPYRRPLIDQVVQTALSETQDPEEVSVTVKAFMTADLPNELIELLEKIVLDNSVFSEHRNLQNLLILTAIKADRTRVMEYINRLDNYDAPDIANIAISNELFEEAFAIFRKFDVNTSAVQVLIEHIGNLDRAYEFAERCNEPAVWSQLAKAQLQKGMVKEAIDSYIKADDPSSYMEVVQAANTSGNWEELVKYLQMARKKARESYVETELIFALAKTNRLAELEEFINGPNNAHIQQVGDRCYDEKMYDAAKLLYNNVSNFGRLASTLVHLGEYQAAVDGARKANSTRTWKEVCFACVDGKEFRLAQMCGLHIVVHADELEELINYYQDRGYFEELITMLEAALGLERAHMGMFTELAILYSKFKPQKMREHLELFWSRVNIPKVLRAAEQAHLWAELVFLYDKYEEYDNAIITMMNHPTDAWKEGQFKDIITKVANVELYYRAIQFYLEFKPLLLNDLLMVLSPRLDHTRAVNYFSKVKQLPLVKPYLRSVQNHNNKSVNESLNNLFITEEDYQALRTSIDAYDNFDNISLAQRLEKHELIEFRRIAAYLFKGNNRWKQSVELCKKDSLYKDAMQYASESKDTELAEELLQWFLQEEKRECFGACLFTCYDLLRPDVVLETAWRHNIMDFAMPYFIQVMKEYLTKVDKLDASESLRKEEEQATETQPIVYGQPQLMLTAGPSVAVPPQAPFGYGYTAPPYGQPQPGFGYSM
smiles,measurement,setting,value
C[C@H](Oc1cc(-c2cnn(C3CCNCC3)c2)cnc1N)c1c(Cl)ccc(F)c1Cl [(5)-crizotinib],AvgP,[1],0.1898
same,SC.Exp. 1-1,[1],0
same,SC.Exp. 1-2,[1],2
same,SC.Exp. 2-1,[1],0
same,SC.Exp. 2-2,[1],0
same,Sum (SC.Exp.),[1],2
same,AvgP,[2],0
same,SC.Exp. 1-1,[2],16
same,SC.Exp. 1-2,[2],14
same,SC.Exp. 2-1,[2],5
same,SC.Exp. 2-2,[2],7
same,SC.Exp. Sum,[2],42
same,AvgP,[3],0.4044
same,SC.Exp. 1-1,[3],2
same,SC.Exp. 1-2,[3],3
same,SC.Exp. 2-1,[3],0
same,SC.Exp. 2-2,[3],0
same,Sum (SC.Exp.),[3],5
same,AvgP,[4],0.3081
same,SC.Exp. 1-1,[4],3
same,SC.Exp. 1-2,[4],2
same,SC.Exp. 2-1,[4],0
same,SC.Exp. 2-2,[4],0
same,Sum (SC.Exp.),[4],5
same,AvgP,[5],0.4952
same,SC.Exp. 1-1,[5],8
same,SC.Exp. 1-2,[5],7
same,SC.Exp. 2-1,[5],0
same,SC.Exp. 2-2,[5],0
same,Sum (SC.Exp.),[5],15
same,AvgP,[6],0.8429
same,SC.Exp. 1-1,[6],4
same,SC.Exp. 1-2,[6],3
same,SC.Exp. 2-1,[6],3
same,SC.Exp. 2-2,[6],3
same,Sum (SC.Exp.),[6],13
same,AvgP,[7],0.2
same,SC.Exp. 1-1,[7],0
same,SC.Exp. 1-2,[7],0
same,SC.Exp. 2-1,[7],2
same,SC.Exp. 2-2,[7],0
same,Sum (SC.Exp.),[7],2
